Data on eleven compounds can be found in ChEMBL document CHEMBL3137667, “[Drug-induced liver injury; fourteenth updated edition of the bibliographic database of liver injuries and related drugs]” (Gastroenterol Clin Biol, 2004).

Data set [1] is described as follows: Highest frequency of acute liver toxicity observed during clinical trials, expressed as a percentage. [column '% AIGUE' in source]. As to conditions: human.
The conditions of data set [2]: human.
A short description of data set [3]: Highest frequency of moderate liver toxicity observed during clinical trials, expressed as a percentage. [column '% BIOL' in source]. To be noted: human.
The conditions of data set [4]: human. The source holds these as a separate data set.
For data set [5] the following is noted: human. This is another data set of the same source.
For data set [6] the following is noted: human. This is another data set of the same source.
For data set [7] the following is noted: human, serum.
The conditions of data set [8]: human, serum. This is another data set of the same source.
For data set [9] the following is noted: human. The source holds these as a separate data set.
The conditions of data set [10]: human, serum, 4383 h.
For data set [11] the following is noted: human. The source holds these as a separate data set.
The conditions of data set [12]: human. The source holds these as a separate data set.
The conditions of data set [13]: human. The source holds these as a separate data set.
The conditions of data set [14]: human. The source holds these as a separate data set.
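Wherever Hepatotoxicity (association with vascular disease) is given: count of indexed literature references reporting vascular liver injury in humans, e.g. peliosis hepatitis, hepatic veno-occlusive disease or Budd-Chiari syndrome.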
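Wherever Hepatotoxicity (benign tumour) is given: value is a count of indexed literature references citing a benign tumour confirmed by histopathology.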
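Wherever Hepatotoxicity (choleostasis) is given: human cholestatic liver injury, shown by histopathology or by peak ALT or AST elevation over alkaline phosphatase ratio below 2, value counts indexed literature reports.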
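Wherever Hepatotoxicity (chronic liver disease) is given: chronic liver injury confirmed by histopathology or persistently raised serum aminotransferase activity beyond 6 months, value given as the count of indexed literature references.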
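Wherever Hepatotoxicity (cirrhosis) is given: value is a count of indexed literature references reporting cirrhosis confirmed by histopathology.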
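Wherever Hepatotoxicity (cytolytic) is given: human cytolytic liver injury, shown by histopathology or by a ratio above 5 of peak ALT or AST elevation to alkaline phosphatase elevation, value counts indexed references.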
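Wherever Hepatotoxicity (granulomatous hepatitis) is given: value is a count of indexed literature references reporting granulomatous liver disease confirmed by histopathology.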
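Wherever Hepatotoxicity (malignant tumour) is given: malignant tumour confirmed by histopathology, value gives the count of indexed literature references reporting it.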
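Wherever Hepatotoxicity (severe hepatitis) is given: human clinical data: severe hepatitis, meaning potentially life-threatening liver failure or clinically observed cases, the value counts how many indexed literature references report it.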
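Wherever Hepatotoxicity (steatosis) is given: steatosis confirmed by histopathology, value is the count of indexed references.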

In the case of `O=C(COCCOCCOCC(=O)Nc1c(I)cc(I)c(C(=O)O)c1I)Nc1c(I)cc(I)c(C(=O)O)c1I` [IOTROXIC ACID], the “Hepatotoxicity (acute)” value in [1] worked out at 0%; in data set [8], 0. Besides, the “Hepatotoxicity (choleostasis)” value in data set [2] is listed as 0. For the same compound, the “Hepatotoxicity (moderate)” value in data set [3] stood at 0%; in [7], 1. Moreover, the “Hepatotoxicity (granulomatous hepatitis)” value in data set [4] came to 0. Also, the “Hepatotoxicity (association with vascular disease)” value in [5] was 0. In addition, the “Hepatotoxicity (malignant tumour)” value in data set [6] is recorded as 0. Further, in data set [9], the “Hepatotoxicity (severe hepatitis)” value worked out at 0. Moreover, in [10], the “Hepatotoxicity (chronic liver disease)” value is given as 0. In data set [11], the “Hepatotoxicity (steatosis)” value is reported as 0. Besides, the “Hepatotoxicity (cytolytic)” value in data set [12] was found to be 0. Further, in data set [13], the “Hepatotoxicity (cirrhosis)” value was found to be 0. Besides, the “Hepatotoxicity (benign tumour)” value in [14] came to 0.
`CN[C@@H]1[C@@H](O)[C@@H](O[C@@H]2[C@@H](O)[C@H](O[C@H]3O[C@H](CN)[C@@H](O)[C@H](O)[C@H]3O)[C@@H](N)C[C@H]2NC(=O)[C@@H](O)CN)OC[C@]1(C)O` [ISEPAMICIN]: the “Hepatotoxicity (acute)” value in data set [1] is on record as 0%; in data set [8], 0. In data set [2], the “Hepatotoxicity (choleostasis)” value was found to be 0. For the same compound, the entries for the “Hepatotoxicity (moderate)” value in data set [3] and in data set [7] were 30% and 22, respectively. Further, the “Hepatotoxicity (granulomatous hepatitis)” value in data set [4] was found to be 0. Also, the “Hepatotoxicity (association with vascular disease)” value in data set [5] is given as 0. Moreover, in data set [6], the “Hepatotoxicity (malignant tumour)” value was 0. Besides, the “Hepatotoxicity (severe hepatitis)” value in data set [9] stood at 0. The “Hepatotoxicity (chronic liver disease)” value in data set [10] was found to be 0. Moreover, in data set [11], the “Hepatotoxicity (steatosis)” value worked out at 0. Moreover, the “Hepatotoxicity (cytolytic)” value in [12] was determined as 0. Moreover, in data set [13], the “Hepatotoxicity (cirrhosis)” value came out at 0. The “Hepatotoxicity (benign tumour)” value in data set [14] worked out at 0.
For the compound `CC(=O)OCC(=O)[C@@]1(O)CC[C@H]2[C@@H]3CCC4=CC(=O)C=C[C@]4(C)[C@@]3(F)[C@@H](O)C[C@@]21C` [ISOFLUPREDONE ACETATE], the “Hepatotoxicity (acute)” value in data set [1] is on record as 0%; in [8] it was 0. In addition, the “Hepatotoxicity (choleostasis)” value in data set [2] is listed as 0. Moreover, the “Hepatotoxicity (moderate)” value turned out to be 0% in data set [3] and 2 in [7]. Further, in data set [4], the “Hepatotoxicity (granulomatous hepatitis)” value is reported as 0. For the same compound, the “Hepatotoxicity (association with vascular disease)” value in data set [5] amounted to 0. Further, the “Hepatotoxicity (malignant tumour)” value in [6] stood at 0. In addition, the “Hepatotoxicity (severe hepatitis)” value in [9] was found to be 0. Also, the “Hepatotoxicity (chronic liver disease)” value in data set [10] was 0. Besides, the “Hepatotoxicity (steatosis)” value in data set [11] came out at 0. Moreover, the “Hepatotoxicity (cytolytic)” value in [12] is reported as 0. The “Hepatotoxicity (cirrhosis)” value in data set [13] came to 0. Also, in data set [14], the “Hepatotoxicity (benign tumour)” value is reported as 0.
As for `COC(=O)C1=C(C)NC(C)=C(C(=O)OC(C)C)C1c1cccc2nonc12` (centres undefined) [ISRADIPINE], the “Hepatotoxicity (acute)” value is listed as 0% in data set [1] and 0 in data set [8]. Besides, in data set [2], the “Hepatotoxicity (choleostasis)” value worked out at 0. Also, the figures for the “Hepatotoxicity (moderate)” value in data set [3] and in data set [7] were 8.3% and 6, respectively. Further, the “Hepatotoxicity (granulomatous hepatitis)” value in [4] was 0. Further, the “Hepatotoxicity (association with vascular disease)” value in [5] amounted to 0. Besides, the “Hepatotoxicity (malignant tumour)” value in [6] came out at 0. The “Hepatotoxicity (severe hepatitis)” value in [9] was determined as 0. Further, the “Hepatotoxicity (chronic liver disease)” value in data set [10] is listed as 0. The “Hepatotoxicity (steatosis)” value in [11] came to 0. Besides, the “Hepatotoxicity (cytolytic)” value in data set [12] is listed as 0. Also, in [13], the “Hepatotoxicity (cirrhosis)” value came out at 0. Besides, the “Hepatotoxicity (benign tumour)” value in data set [14] is listed as 0.
Turning to `CNC1(c2ccccc2Cl)CCCCC1=O` (centres undefined) [KETAMINE], the “Hepatotoxicity (acute)” value in data set [1] was determined as 0%; in data set [8], 0. Further, the “Hepatotoxicity (choleostasis)” value in data set [2] is reported as 0. Moreover, the entries for the “Hepatotoxicity (moderate)” value in data set [3] and in [7] were 23.5% and 2, respectively. In addition, the “Hepatotoxicity (granulomatous hepatitis)” value in data set [4] was 0. For the same compound, the “Hepatotoxicity (association with vascular disease)” value in data set [5] was found to be 0. For the same compound, the “Hepatotoxicity (malignant tumour)” value in data set [6] is 0. The “Hepatotoxicity (severe hepatitis)” value in [9] worked out at 0. Further, in [10], the “Hepatotoxicity (chronic liver disease)” value was 0. The “Hepatotoxicity (steatosis)” value in [11] is on record as 0. In addition, in data set [12], the “Hepatotoxicity (cytolytic)” value is 0. Also, in data set [13], the “Hepatotoxicity (cirrhosis)” value is reported as 0. Also, the “Hepatotoxicity (benign tumour)” value in data set [14] worked out at 0.
`CN1CCC(=C2c3ccccc3CC(=O)c3sccc32)CC1` [KETOTIFEN]: the “Hepatotoxicity (acute)” value was found to be 0% in data set [1] and 1 in data set [8]. Besides, the “Hepatotoxicity (choleostasis)” value in data set [2] is on record as 0. For the same compound, the “Hepatotoxicity (moderate)” value in data set [3] was found to be 0%; in [7], 0. In addition, the “Hepatotoxicity (granulomatous hepatitis)” value in [4] is 0. Further, the “Hepatotoxicity (association with vascular disease)” value in data set [5] is reported as 0. Moreover, the “Hepatotoxicity (malignant tumour)” value in [6] is recorded as 0. Also, the “Hepatotoxicity (severe hepatitis)” value in [9] turned out to be 0. In data set [10], the “Hepatotoxicity (chronic liver disease)” value is given as 0. Moreover, the “Hepatotoxicity (steatosis)” value in data set [11] is 0. Further, in [12], the “Hepatotoxicity (cytolytic)” value is 0. For the same compound, the “Hepatotoxicity (cirrhosis)” value in data set [13] was 0. The “Hepatotoxicity (benign tumour)” value in [14] stood at 0.
`CCOC(=O)C1=C(C)NC(C)=C(C(=O)OCC)C1c1ccccc1/C=C/C(=O)OC(C)(C)C` [LACIDIPINE]: the “Hepatotoxicity (acute)” value in data set [1] is on record as 0%; in data set [8], 0. The “Hepatotoxicity (choleostasis)” value in data set [2] is given as 0. For the same compound, the “Hepatotoxicity (moderate)” value turned out to be 0% in [3] and 1 in data set [7]. The “Hepatotoxicity (granulomatous hepatitis)” value in data set [4] is 0. Also, the “Hepatotoxicity (association with vascular disease)” value in data set [5] was 0. In addition, in data set [6], the “Hepatotoxicity (malignant tumour)” value worked out at 0. The “Hepatotoxicity (severe hepatitis)” value in [9] is on record as 0. Further, the “Hepatotoxicity (chronic liver disease)” value in [10] is recorded as 0. The “Hepatotoxicity (steatosis)” value in data set [11] is 0. In data set [12], the “Hepatotoxicity (cytolytic)” value was determined as 0. Moreover, the “Hepatotoxicity (cirrhosis)” value in [13] is 0. The “Hepatotoxicity (benign tumour)” value in data set [14] is 0.
Consider `NCCNC(=O)c1ccc(Cl)cn1` [LAZABEMIDE], for which the “Hepatotoxicity (acute)” value turned out to be 0% in data set [1] and 0 in data set [8]. Further, in data set [2], the “Hepatotoxicity (choleostasis)” value is reported as 0. The “Hepatotoxicity (moderate)” value in data set [3] was found to be 0.3%; in [7] it was 1. The “Hepatotoxicity (granulomatous hepatitis)” value in data set [4] was 0. The “Hepatotoxicity (association with vascular disease)” value in [5] is reported as 0. Also, the “Hepatotoxicity (malignant tumour)” value in data set [6] was 0. Also, the “Hepatotoxicity (severe hepatitis)” value in data set [9] is recorded as 0. For the same compound, the “Hepatotoxicity (chronic liver disease)” value in [10] is 0. Also, in data set [11], the “Hepatotoxicity (steatosis)” value is reported as 0. Also, the “Hepatotoxicity (cytolytic)” value in data set [12] turned out to be 0. For the same compound, in data set [13], the “Hepatotoxicity (cirrhosis)” value turned out to be 0. Also, in [14], the “Hepatotoxicity (benign tumour)” value is on record as 0.
For the compound `Cc1oc(=O)oc1COC(=O)[C@@H]1N2C(=O)[C@@H](NC(=O)[C@H](N)c3ccccc3)[C@H]2SC1(C)C` [LENAMPICILLIN], the “Hepatotoxicity (acute)” value in data set [1] came out at 0%; in data set [8], 0. For the same compound, in [2], the “Hepatotoxicity (choleostasis)” value is recorded as 0. The entries for the “Hepatotoxicity (moderate)” value in [3] and in [7] were 22% and 9, respectively. In data set [4], the “Hepatotoxicity (granulomatous hepatitis)” value worked out at 0. Besides, the “Hepatotoxicity (association with vascular disease)” value in data set [5] amounted to 0. Besides, in data set [6], the “Hepatotoxicity (malignant tumour)” value was 0. The “Hepatotoxicity (severe hepatitis)” value in [9] came to 0. The “Hepatotoxicity (chronic liver disease)” value in data set [10] is 0. Also, in [11], the “Hepatotoxicity (steatosis)” value was determined as 0. In data set [12], the “Hepatotoxicity (cytolytic)” value is 0. In addition, in data set [13], the “Hepatotoxicity (cirrhosis)” value is listed as 0. Besides, in [14], the “Hepatotoxicity (benign tumour)” value is recorded as 0.
As to `O=C(CCCN1CCC(C(=O)c2ccc(F)cc2)CC1)c1ccc(F)cc1` [LENPERONE], the “Hepatotoxicity (acute)” value in data set [1] is listed as 0%; in data set [8], 0. Further, in data set [2], the “Hepatotoxicity (choleostasis)” value worked out at 0. Besides, the “Hepatotoxicity (moderate)” value came to 0% in data set [3] and 2 in data set [7]. In data set [4], the “Hepatotoxicity (granulomatous hepatitis)” value stood at 0. Also, the “Hepatotoxicity (association with vascular disease)” value in [5] is 0. Further, the “Hepatotoxicity (malignant tumour)” value in [6] is recorded as 0. In data set [9], the “Hepatotoxicity (severe hepatitis)” value is listed as 0. In addition, the “Hepatotoxicity (chronic liver disease)” value in [10] is 0. The “Hepatotoxicity (steatosis)” value in data set [11] worked out at 0. The “Hepatotoxicity (cytolytic)” value in data set [12] was 0. In addition, the “Hepatotoxicity (cirrhosis)” value in data set [13] worked out at 0. Moreover, the “Hepatotoxicity (benign tumour)” value in data set [14] is reported as 0.
For the compound `CCNC(=O)[C@@H]1CCCN1C(=O)[C@H](CCCNC(=N)N)NC(=O)[C@H](CC(C)C)NC(=O)[C@@H](CC(C)C)NC(=O)[C@H](Cc1ccc(O)cc1)NC(=O)[C@H](CO)NC(=O)[C@H](Cc1c[nH]c2ccccc12)NC(=O)[C@H](Cc1c[nH]cn1)NC(=O)[C@@H]1CCC(=O)N1` [LEUPROLIDE], the “Hepatotoxicity (acute)” value in [1] was 0%; in [8], 0. In addition, in [2], the “Hepatotoxicity (choleostasis)” value was determined as 0. The “Hepatotoxicity (moderate)” value was 2.4% in data set [3] and 3 in data set [7]. Further, in data set [4], the “Hepatotoxicity (granulomatous hepatitis)” value was 0. Moreover, the “Hepatotoxicity (association with vascular disease)” value in data set [5] is 0. In addition, the “Hepatotoxicity (malignant tumour)” value in data set [6] was 0. Moreover, in data set [9], the “Hepatotoxicity (severe hepatitis)” value amounted to 0. In data set [10], the “Hepatotoxicity (chronic liver disease)” value came to 0. The “Hepatotoxicity (steatosis)” value in data set [11] is reported as 0. Besides, the “Hepatotoxicity (cytolytic)” value in data set [12] was 0. Also, the “Hepatotoxicity (cirrhosis)” value in data set [13] is 0. In data set [14], the “Hepatotoxicity (benign tumour)” value turned out to be 0.
